Measurements published in paper PMC5650337, “A peptidomimetic with a chiral switch is an inhibitor of epidermal growth factor receptor heterodimerization” (Oncotarget, 2017).
Where two headings read alike, the source gives them in different places. Where a SMILES comes first, the peptide text is derived from it.

Tests used:
SKOV-3 cells = conditions: read-out: IC50 SKOV-3(+); HER2-overexpressing ovarian cancer cells, 72 h
Experimental: (§5) Cellular assays were performed using BT-474, SKBR-3, Calu-3, MCF-7, and MCF-10A cells (ATCC). Antiproliferative activity was measured by CellTiter-Glo®, [49] a luminescence-based cell viability assay. In a 96-well plate, 1 × 10^4 cells/well were seeded and incubated overnight at 37°C and 5% CO2. Stock solutions of peptidomimetics were prepared by dissolving 1.5 mg/mL of compounds in DMSO. Stock solution of the compounds were diluted using the serum-free medium to prepare solutions of different concentrations of compounds. Compounds in the medium were added to the wells in triplicate and incubated for 72 h. As controls, cells treated with 1% sodium dodecyl sulfate and 1% dimethyl sulfoxide were used. At the end of the experiment, CellTiter-Glo® reagent was added, and luminescence was measured by a plate reader. A dose response curve was generated using luminescence vs concentration of compounds and IC50 values were obtained using Prism® (GraphPad Software, La Jolla, CA). Experiments were repeated at least three times to obtain standard deviation values.

[1] = test system: phosphorylated HER2 in BT-474 cells; test: Western blot of phosphorylated HER2; assay type: cell-based; conditions: 0.5 and 1 µM
Experimental: (§1) BT-474, Calu-3, and SKOV-3 cells were treated with compounds at 1 µM and lapatinib (positive control) at 0.07 µM. Cells without any treatment and cells treated with control compound were employed as negative controls in these studies. Cells were incubated for 36 h, washed and trypsinized. The cell lysate was prepared using cell lysis buffer containing protease inhibitor and phosphatase inhibitor. The protein concentration in each sample was determined using Bradford’s assay. 40 μg of protein from each sample was loaded on Novex® 4–20% tris-glycine gels and western blot analysis was carried out as described in our previous publication. Antibodies for the detection of total HER2 protein (t-HER2) and phosphorylated HER2 protein (p-HER2) were used at 1:3000 dilutions. After addition of the substrate and enhancer solutions from a Super Signal-enhanced chemiluminescence kit (Pierce, Rockford, IL) to the membrane, the images were captured using C-Digit Blot Scanner (LI-COR Biotechnology, Lincoln, NE). A representative Western blot image was used for the final presentation.

[2] = test system: phosphorylated HER2 in Calu-3 cells; test: Western blot of phosphorylated HER2; assay type: cell-based
Experimental: as §1

Calu-3 cells = conditions: read-out: IC50 Calu-3 (+); HER2-overexpressing lung cancer cells, 72 h
Experimental: as §5

BT-474 breast tumors = test: Xenograft model of breast cancer; assay type: in vivo, athymic nude mice; conditions: BT-474 xenograft, 19 days; 18 and 9 4 mg/kg twice a week intratumor; lapatinib 10 mg/kg once a week i.p.
Experimental: All animals were handled according to the approved protocol from IACUC at the University of Louisiana at Monroe. Athymic nude mice (Foxn1nu/Foxn1+, female, 4–5 weeks) were purchased from Harlan Laboratories (Indianapolis, IN) and maintained in the ULM School of Pharmacy vivarium. After acclimatization of animals to the local environment, estrogen (17β-estradiol) pellets (0.72 mg, 90-day release) were implanted subcutaneously in the mice, under anesthesia. Tumors were induced in mice as described previously. Orthotopic injection of about three-million BT-474 cells suspended in the serum-free RPMI-1640 medium was done at the second left mammary fat pad. Mice were observed every day for tumor formation, and the tumor diameter was measured with calipers, and the tumor volume was calculated. When a tumor diameter of 3 mm was achieved, mice were randomly assigned to four groups of six. These groups contain negative control (vehicle control), positive control (lapatinib), and two treatment groups (compound 9 and 18). The mice were treated for 19 days. Compound 18 was administered near the base of the tumor at a dose of 4 mg/kg twice a week. Control groups received intratumor saline injections twice a week, and lapatinib was administered at 10 mg/kg once a week by intraperitoneal injection. The marker to end the experiments was based on tumor doubling time rather than tumor volume. Since tumor doubling time was 4 times in 19 days, experiments were stopped on the 19th day. Tumor-bearing mice were sacrificed, and three tumors per group were harvested and maintained at –80°C and the remaining three tumors were fixed in paraffin blocks. Microsections (5 µm) of paraffin fixed tumors were stained with hemotoxylin and eosin (H&E) and observed for necrosis by a pathologist. All data are presented as the mean ± SE. Statistical differences were evaluated by Mann-Whitney U test as well as one-way ANOVA analysis of data from different groups, and the criterion for statistical significance was p < 0.05.

[3] = target: T1, HER2:HER3 dimerization in transfected U2OS cells (Homo sapiens, UniProt P04626); test: Enzyme fragment complementation (PathHunter) assay; assay type: cell-based; conditions: in the presence of 0.3 µM NRG1
T1 construct: host or cells: U2OS
Experimental: A Pathhunter assay kit was obtained from DiscoverX, and enzyme fragment complementation assay was carried out. U2OS cells transfected with HER3:HER2 were used for the assay. After cells were attached to the wells, they were incubated with compound 18 and controls at different concentration in the presence of neuregulin-1 (NRG-1) at 0.3 µM concentration. After 24 h of incubation, reagents were added, and luminescence was measured and compared with a control without any compound. A plot of luminescence versus concentration was obtained to measure the dimerization of HER3:HER2 and its inhibition by compound 18.

[4] = target: T2, HER2:HER3 heterodimerization in tumor sections (Homo sapiens, UniProt P04626); test: PLA on xenograft tumor sections; assay type: in vivo, athymic nude mice
T2 construct: from tissue; host or cells: BT-474 xenograft tumours grown in athymic nude mice
Experimental: (§2) Western blot and PLA assay were carried out on tumor sections as described before. Immunoblot analysis was performed to evaluate the levels of total HER2 and phosphorylated HER2. Tumor sections were deparaffinized using xylene and rehydrated with decreasing concentrations of ethanol. Antigen retrieval on the microsections of the breast tumors was done in a steaming sodium citrate buffer (10 mM, 0.05% Tween-20, pH 6.0) for 5 min. The tumor sections were then used to analyze inhibition of HER2:HER3 dimerization using PLA.

[5] = test system: NCI-H1975 cells (EGFR L858R/T790M)
Experimental: Antiproliferative activity was measured by CellTiter-Glo®, [49] a luminescence-based cell viability assay. In a 96-well plate, 1 × 10^4 cells/well were seeded and incubated overnight at 37°C and 5% CO2. Stock solutions of peptidomimetics were prepared by dissolving 1.5 mg/mL of compounds in DMSO. Stock solution of the compounds were diluted using the serum-free medium to prepare solutions of different concentrations of compounds. […] As controls, cells treated with 1% sodium dodecyl sulfate and 1% dimethyl sulfoxide were used. At the end of the experiment, CellTiter-Glo® reagent was added, and luminescence was measured by a plate reader. A dose response curve was generated using luminescence vs concentration of compounds and IC50 values were obtained using Prism® (GraphPad Software, La Jolla, CA). Experiments were repeated at least three times to obtain standard deviation values.

MCF-7 cells = test: Antiproliferative activity (CellTiter-Glo); assay type: cell-based
Source text: (§3) Erlotinib was from Sigma (Sigma-Aldrich Chemie GmbH).

[6] = test system: MCF-10A normal breast epithelial cell line; test: Antiproliferative activity (CellTiter-Glo); assay type: cell-based
Source text: as §3

[7] = test system: HER2 phosphorylation in tumor samples; test: Western blot of xenograft tumor samples; assay type: in vivo, athymic nude mice; conditions: treated tumors compared to control
Experimental: as §2

[8] = target: T3, HER2:HER3 heterodimer in SKBR-3 cells (Homo sapiens, UniProt P04626); test: Proximity ligation assay (PLA); assay type: cell-based; conditions: 0.5 and 1 µM
T3 construct: indicating HER2:HER3 dimerization in SKBR-3 cells; host or cells: SKBR-3
Experimental: (§4) Proximity ligation assay was performed as described previously. […] Fixed cells were used for PLA assay. Cells were incubated with primary antibodies for 24 h and washed, and secondary antibodies PLA+ and PLA− were added. After incubation and washing, PLA detection reagent was added, and the cells were covered with a glass plate after mounting medium was added. Slides were viewed using an inverted microscope and a multiphoton microscope. Images were obtained at 40 and 60X.

[9] = target: T4, EGFR:HER2 heterodimer in SKBR-3 cells (Homo sapiens, UniProt P04626); test: Proximity ligation assay (PLA); assay type: cell-based; conditions: 0.5 and 1 µM
T4 construct: we probed for HER2:EGFR dimers with PLA probes in SKBR-3 cells; host or cells: SKBR-3
Experimental: as §4

T3 sequence (P04626 23-1255, one chain of several): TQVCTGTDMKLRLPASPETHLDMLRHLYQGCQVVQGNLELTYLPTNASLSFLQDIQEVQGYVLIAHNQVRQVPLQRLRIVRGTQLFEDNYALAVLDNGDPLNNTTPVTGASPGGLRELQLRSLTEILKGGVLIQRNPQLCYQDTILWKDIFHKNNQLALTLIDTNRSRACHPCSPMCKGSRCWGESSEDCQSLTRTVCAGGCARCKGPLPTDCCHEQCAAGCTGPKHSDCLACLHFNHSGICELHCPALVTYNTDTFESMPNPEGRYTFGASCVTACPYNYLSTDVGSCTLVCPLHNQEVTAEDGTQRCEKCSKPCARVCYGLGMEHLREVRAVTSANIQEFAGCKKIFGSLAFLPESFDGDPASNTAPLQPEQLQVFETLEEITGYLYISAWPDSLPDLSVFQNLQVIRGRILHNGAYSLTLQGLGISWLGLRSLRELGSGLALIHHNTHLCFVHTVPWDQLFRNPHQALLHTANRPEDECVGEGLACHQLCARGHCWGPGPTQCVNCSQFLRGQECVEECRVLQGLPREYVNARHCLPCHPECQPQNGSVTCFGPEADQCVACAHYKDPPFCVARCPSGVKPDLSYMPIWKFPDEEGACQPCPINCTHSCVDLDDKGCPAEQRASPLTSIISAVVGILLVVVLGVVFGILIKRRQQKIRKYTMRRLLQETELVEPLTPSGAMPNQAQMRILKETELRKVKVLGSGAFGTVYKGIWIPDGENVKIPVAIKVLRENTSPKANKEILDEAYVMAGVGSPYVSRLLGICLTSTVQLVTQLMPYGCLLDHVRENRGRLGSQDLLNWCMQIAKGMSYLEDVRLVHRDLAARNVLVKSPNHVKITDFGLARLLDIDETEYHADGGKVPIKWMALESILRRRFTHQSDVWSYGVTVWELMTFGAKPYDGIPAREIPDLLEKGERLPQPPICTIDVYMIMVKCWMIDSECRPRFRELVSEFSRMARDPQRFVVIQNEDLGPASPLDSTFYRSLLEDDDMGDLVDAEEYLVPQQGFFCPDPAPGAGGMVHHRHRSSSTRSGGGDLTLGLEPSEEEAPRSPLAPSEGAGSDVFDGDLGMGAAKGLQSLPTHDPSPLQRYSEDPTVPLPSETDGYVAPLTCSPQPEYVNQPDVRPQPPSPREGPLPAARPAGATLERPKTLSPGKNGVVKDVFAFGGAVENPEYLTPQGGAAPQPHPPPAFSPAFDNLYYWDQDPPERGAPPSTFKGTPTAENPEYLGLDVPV
T1 sequence (P04626 23-1255): as the sequence (P04626 23-1255, one chain of several) above
T4 sequence (P04626 23-1255, one chain of several): as above
T2 sequence (P04626 23-1255, one chain of several): as above

N=C(N)NCCC[C@@H]1NC(=O)[C@H]2CCCN2C(=O)[C@@H]2CCCN2C(=O)[C@H](CCCNC(=N)N)NC(=O)C[C@H](c2cccc3ccccc23)NC(=O)[C@H](Cc2ccccc2)NC(=O)[C@H](CC(=O)O)NC(=O)[C@H](CC(=O)O)NC(=O)[C@H](Cc2ccccc2)NC(=O)C[C@H](c2cccc3ccccc23)NC1=O [compound 18, Cyclo(1,10)P^1p^2R^3(R-Anapa)^4F^5D^6D^7F^8(R-Anapa)^9R^10] (HELM PEPTIDE1{P.[dP].R.[O=C(C[C@@H](N[*:1])c1cccc2ccccc12)[*:2]].F.D.D.F.[O=C(C[C@@H](N[*:1])c1cccc2ccccc12)[*:2]].R}$PEPTIDE1,PEPTIDE1,1:R1-10:R2$$$V2.0)
IC50 (SKOV-3 cells): 853 ± 102 nM | Phosphorylation of HER2 (Western blot) [1]: decreases the phosphorylation of HER2 in a concentration-dependent manner | Phosphorylation of HER2 (Western blot) [2]: decreases the phosphorylation of HER2 in a concentration-dependent manner | IC50 (Calu-3 cells): 18 ± 13 nM | Tumor growth versus vehicle (BT-474 breast tumors): delay in tumor growth and tumor size | Inhibition of HER2:HER3 dimerization (PathHunter) [3]: dimerization of HER2:HER3 is inhibited in a concentration-dependent manner | HER2:HER3 heterodimerization in tumor sections (PLA) [4]: diminished red fluorescence signals | Synergistic effect with erlotinib (isobologram) ([5]; NCI-H1975, compound 18 plus erlotinib): synergistic effect | IC50 ([5]; read-out: IC50 in NCI-H1975, EGFR L858R/T790M lung cancer cell line): 4850 nM | Synergistic effect with erlotinib (isobologram) (MCF-7 cells; MCF-7, compound 18 plus erlotinib): no synergistic effect | IC50 (MCF-7 cells; breast cancer cells that do not overexpress HER2, 72 h): > 50000 nM | Activity in MCF-10A relative to Calu-3 (times less) ([6]; IC50 MCF-10A vs Calu-3): ~2000 times | Activity in MCF-10A relative to SKBR-3 (times less) ([6]; IC50 MCF-10A vs SKBR-3): ~200 times | HER2 phosphorylation in tumor samples (Western blot) [7]: decrease in HER2 phosphorylation | Inhibition of HER2:HER3 heterodimerization (PLA) [8]: inhibits heterodimerization in a concentration-dependent manner | Inhibition of EGFR:HER2 heterodimerization (PLA) [9]: inhibits both EGFR:HER2 and HER2:HER3 dimerization | IC50 (SKBR-3 cells; read-out: Antiproliferative activity (IC50 µM) SKBR-3 cells, Table 2, compound 18 and diastereoisomers): 0.194 ± 0.046 µM | IC50 (SKBR-3 cells; read-out: IC50 SKBR-3(+), HER2-overexpressing breast cancer cells, 72 h): 0.194 ± 0.046 µM
